Reference: ChEMBL document CHEMBL4354881, “Optimization of Potent ATAD2 and CECR2 Bromodomain Inhibitors with an Atypical Binding Mode” (J Med Chem, 2020)

Experiments:
[1] = target: Chromatin remodeling regulator CECR2 (Homo sapiens, UniProt Q9BXF3); test: Binding affinity to human partial length CECR2 (P423 to D543 residues) expressed in bacterial expression system by BROMOscan assay
[2] = target: T1, Bromodomain and PHD finger-containing protein 3 (Homo sapiens, UniProt Q9ULD4); test: Binding affinity to human partial length BRPF3 (E588 to G701 residues) expressed in bacterial expression system by BROMOscan assay
T1 sequence (Q9ULD4 whole entry): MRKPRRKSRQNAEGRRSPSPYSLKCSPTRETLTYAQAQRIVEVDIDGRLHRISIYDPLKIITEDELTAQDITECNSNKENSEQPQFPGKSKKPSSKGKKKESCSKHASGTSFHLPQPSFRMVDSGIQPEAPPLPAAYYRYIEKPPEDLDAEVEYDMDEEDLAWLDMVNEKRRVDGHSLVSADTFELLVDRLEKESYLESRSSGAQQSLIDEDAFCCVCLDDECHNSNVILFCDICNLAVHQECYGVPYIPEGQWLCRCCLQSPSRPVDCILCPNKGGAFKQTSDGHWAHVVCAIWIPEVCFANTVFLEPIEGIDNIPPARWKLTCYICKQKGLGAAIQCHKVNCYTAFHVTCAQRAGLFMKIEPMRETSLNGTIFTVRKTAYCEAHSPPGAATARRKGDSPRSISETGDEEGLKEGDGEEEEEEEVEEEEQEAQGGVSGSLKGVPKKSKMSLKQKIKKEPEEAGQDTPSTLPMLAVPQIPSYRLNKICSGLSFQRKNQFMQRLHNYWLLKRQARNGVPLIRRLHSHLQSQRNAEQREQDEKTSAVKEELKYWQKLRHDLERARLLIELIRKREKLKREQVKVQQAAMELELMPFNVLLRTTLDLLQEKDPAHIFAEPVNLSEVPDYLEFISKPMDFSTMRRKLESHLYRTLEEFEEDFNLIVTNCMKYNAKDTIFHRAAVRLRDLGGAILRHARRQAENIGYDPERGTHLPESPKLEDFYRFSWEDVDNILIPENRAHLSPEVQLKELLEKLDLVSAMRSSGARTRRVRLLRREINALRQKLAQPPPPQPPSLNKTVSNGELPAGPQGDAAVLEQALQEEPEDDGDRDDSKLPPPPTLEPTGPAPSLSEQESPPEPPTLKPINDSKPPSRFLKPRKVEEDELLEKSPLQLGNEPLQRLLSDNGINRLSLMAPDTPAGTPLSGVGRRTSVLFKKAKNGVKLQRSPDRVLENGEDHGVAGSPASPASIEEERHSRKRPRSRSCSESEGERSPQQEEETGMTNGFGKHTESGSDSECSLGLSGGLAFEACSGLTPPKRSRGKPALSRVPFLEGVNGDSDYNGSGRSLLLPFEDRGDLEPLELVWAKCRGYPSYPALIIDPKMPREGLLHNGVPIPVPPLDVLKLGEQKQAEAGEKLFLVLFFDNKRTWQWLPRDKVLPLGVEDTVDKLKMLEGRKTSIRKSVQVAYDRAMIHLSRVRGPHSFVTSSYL

[3] = target: Bromodomain-containing protein 4 (Homo sapiens, UniProt O60885, Y390A); test: Displacement of Alexa Fluor 647-labeled ligand from BRD4 BD1 Y390A mutant (1 to 477 residue) (unknown origin) measured after 30 mins by TR-FRET assay
[4] = target: Transcription initiation factor TFIID subunit 1-like (Homo sapiens, UniProt Q8IZX4); test: Binding affinity to human partial length TAF1L bromodomain 2 (Q1523 to D1654 residues) expressed in bacterial expression system by BROMOscan assay
Sequence of Transcription initiation factor TFIID subunit 1-like (Q8IZX4 whole entry, the tested form may be a part): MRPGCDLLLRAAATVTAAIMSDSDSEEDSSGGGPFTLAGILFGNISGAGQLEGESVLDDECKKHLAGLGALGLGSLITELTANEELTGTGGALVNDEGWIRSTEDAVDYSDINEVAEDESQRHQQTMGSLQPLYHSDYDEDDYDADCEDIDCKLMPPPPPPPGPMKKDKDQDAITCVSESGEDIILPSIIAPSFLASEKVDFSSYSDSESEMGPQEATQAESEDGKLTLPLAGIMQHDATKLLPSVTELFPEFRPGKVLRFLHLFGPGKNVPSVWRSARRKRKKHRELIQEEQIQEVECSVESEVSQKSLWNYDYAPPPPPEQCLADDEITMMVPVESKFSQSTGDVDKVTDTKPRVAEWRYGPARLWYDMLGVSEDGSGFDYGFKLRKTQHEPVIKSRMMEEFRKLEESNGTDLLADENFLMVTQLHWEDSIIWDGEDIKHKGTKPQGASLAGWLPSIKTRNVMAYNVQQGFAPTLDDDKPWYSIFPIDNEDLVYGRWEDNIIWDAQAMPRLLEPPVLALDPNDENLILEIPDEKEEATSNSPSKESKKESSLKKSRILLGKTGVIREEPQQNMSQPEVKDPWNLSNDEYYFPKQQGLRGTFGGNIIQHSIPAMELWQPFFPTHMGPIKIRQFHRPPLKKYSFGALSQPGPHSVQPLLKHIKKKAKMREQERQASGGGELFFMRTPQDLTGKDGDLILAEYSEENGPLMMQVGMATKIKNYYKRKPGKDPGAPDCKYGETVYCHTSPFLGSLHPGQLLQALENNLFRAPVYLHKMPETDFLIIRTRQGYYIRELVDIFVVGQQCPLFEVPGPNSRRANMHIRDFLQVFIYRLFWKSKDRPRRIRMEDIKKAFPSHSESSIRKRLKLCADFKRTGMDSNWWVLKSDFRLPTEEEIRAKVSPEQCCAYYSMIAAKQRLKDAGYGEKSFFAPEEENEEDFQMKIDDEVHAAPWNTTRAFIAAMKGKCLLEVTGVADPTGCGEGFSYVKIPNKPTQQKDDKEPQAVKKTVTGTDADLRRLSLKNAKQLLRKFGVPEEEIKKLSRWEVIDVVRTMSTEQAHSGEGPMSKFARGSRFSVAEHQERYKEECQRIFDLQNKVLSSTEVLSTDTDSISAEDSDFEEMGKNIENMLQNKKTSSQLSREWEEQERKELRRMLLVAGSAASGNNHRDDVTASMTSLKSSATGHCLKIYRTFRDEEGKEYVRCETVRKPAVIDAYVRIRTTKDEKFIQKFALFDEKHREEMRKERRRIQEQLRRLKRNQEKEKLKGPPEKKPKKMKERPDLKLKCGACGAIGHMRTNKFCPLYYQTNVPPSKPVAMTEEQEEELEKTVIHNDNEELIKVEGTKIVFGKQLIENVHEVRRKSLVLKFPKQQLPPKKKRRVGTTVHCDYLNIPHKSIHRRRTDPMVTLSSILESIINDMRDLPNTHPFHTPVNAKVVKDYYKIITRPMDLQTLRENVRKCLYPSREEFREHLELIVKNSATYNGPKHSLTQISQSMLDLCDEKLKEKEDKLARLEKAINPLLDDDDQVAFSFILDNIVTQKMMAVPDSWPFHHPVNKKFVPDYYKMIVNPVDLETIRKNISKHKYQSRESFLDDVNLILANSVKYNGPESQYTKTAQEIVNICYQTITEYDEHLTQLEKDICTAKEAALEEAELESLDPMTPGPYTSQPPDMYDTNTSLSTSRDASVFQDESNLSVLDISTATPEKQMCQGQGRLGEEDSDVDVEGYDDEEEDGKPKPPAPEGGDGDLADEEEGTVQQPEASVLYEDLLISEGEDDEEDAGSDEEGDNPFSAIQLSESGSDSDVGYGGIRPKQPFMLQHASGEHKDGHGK

Sequence of Chromatin remodeling regulator CECR2 (Q9BXF3 whole entry, the tested form may be a part): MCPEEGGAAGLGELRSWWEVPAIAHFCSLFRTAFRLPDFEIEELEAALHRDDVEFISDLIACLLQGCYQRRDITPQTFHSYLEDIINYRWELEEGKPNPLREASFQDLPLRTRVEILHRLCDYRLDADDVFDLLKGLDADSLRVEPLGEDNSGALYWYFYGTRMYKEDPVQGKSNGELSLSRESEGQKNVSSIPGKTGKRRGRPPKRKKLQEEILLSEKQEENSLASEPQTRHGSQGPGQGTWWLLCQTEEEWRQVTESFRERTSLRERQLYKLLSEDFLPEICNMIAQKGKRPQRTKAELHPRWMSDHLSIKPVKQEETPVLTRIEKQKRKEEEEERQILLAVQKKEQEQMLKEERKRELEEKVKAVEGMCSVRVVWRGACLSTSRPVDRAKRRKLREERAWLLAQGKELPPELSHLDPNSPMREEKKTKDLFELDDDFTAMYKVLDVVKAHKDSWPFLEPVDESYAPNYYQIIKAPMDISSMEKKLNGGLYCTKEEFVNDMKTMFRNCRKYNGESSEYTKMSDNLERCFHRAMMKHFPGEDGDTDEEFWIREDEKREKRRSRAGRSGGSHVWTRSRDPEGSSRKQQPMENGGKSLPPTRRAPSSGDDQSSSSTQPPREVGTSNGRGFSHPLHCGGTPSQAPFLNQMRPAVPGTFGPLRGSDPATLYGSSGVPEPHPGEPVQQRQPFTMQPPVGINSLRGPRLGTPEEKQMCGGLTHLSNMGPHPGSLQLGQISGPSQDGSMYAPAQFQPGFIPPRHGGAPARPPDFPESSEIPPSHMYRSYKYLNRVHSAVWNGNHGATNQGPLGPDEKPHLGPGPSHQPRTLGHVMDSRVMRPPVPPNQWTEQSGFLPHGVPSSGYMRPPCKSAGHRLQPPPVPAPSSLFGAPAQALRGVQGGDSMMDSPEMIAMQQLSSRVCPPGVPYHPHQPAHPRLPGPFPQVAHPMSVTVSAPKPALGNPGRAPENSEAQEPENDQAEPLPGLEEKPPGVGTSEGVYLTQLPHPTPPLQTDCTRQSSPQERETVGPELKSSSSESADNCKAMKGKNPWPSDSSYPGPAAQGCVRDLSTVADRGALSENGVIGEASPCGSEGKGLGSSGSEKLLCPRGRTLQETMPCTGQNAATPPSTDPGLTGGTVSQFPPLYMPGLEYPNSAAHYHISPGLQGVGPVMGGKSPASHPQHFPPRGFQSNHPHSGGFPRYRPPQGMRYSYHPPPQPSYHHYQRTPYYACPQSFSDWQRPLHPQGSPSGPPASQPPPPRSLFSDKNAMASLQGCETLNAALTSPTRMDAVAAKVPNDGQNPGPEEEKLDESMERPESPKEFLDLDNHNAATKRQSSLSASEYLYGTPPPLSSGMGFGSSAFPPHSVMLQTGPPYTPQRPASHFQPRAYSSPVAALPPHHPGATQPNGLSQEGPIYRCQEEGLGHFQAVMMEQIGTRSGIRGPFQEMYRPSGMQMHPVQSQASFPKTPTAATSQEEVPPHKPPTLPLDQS

Kd [1]: 25.1 nM
Kd [2]: 126 nM
IC50 [3]: > 50100 nM
Kd [4]: 25.1 nM
SMILES: C[C@H]1CCN(S(=O)(=O)c2cc(NC(=O)CN3C(=O)N[C@@](C)(C4CC4)C3=O)ccc2Br)C1
